{
  "source": "paper doi:10.1101/2025.04.28.650819v3",
  "about": "(biorxiv, 2025)",
  "key": {"FtsZ": {"target": "T1, FtsZ (Mycobacterium tuberculosis, UniProt P9WN95)", "T1 sequence (P9WN95 1-379)": "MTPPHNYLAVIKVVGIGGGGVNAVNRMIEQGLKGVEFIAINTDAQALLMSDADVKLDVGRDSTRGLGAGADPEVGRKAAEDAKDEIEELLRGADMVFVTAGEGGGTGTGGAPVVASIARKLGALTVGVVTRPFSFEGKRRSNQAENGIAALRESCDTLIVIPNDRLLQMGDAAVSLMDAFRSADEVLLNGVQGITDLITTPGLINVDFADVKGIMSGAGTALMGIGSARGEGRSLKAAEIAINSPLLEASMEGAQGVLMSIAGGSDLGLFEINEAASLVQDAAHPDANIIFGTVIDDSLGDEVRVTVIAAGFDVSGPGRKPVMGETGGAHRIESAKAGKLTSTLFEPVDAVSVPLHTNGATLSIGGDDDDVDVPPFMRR", "experiment": "thermal shift assay", "assay_type": "binding", "settings": "read-out: thermal shift (dTm) at 100 μM, 16 h"}, "PheRS": {"target": "PheRS (Mycobacterium tuberculosis, UniProt P9WFU3)", "sequence (P9WFU3 whole entry)": "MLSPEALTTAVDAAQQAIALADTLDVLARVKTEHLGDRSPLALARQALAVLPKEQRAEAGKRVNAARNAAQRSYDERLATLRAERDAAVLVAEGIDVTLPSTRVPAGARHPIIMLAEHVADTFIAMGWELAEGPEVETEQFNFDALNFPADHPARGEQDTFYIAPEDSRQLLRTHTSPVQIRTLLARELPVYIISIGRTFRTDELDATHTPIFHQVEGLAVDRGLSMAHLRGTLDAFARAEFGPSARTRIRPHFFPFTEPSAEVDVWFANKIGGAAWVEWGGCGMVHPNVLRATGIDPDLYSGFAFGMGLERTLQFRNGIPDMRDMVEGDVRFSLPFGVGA", "sequence (P9WFU1 whole entry partner)": "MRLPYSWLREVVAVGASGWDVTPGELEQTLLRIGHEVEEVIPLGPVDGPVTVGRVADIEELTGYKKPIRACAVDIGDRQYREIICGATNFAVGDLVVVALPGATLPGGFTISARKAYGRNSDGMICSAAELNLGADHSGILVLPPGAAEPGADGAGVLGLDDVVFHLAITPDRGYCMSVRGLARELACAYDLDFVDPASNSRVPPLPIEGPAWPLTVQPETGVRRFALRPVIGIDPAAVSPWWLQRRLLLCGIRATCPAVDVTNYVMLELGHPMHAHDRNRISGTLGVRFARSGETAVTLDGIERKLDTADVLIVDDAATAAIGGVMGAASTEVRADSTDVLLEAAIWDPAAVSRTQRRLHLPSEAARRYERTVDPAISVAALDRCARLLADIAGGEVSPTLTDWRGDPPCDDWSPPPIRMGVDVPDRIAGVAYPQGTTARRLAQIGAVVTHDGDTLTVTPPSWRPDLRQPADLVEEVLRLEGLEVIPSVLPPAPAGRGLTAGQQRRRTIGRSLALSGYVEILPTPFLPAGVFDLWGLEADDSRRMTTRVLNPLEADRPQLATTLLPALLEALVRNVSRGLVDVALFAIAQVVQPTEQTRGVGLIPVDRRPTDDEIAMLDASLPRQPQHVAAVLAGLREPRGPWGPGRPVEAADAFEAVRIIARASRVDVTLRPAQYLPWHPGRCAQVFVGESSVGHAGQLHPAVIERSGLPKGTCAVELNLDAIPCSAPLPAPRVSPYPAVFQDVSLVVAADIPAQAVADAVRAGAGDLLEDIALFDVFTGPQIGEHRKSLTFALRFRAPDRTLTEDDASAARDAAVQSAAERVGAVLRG", "experiment": "ATP consumption assay", "assay_type": "biochemical"}},
  "note": "pIC50: −log10 of the molar value.",
  "data": [
    {"smiles": "CC(=O)Nc1cc(Nc2cc(NC3CC3)n3ncc(C#N)c3n2)ccc1N(C)CC(=O)Nc1cccc(C(F)(F)F)c1", "note": "[GDI-10996]", "values": [
      {"measurement": "ΔTm at 100 µM", "setting": "FtsZ", "value": 1.25, "unit": "°C"}
    ]},
    {"smiles": "O=C(Nc1cccc(-c2nn[nH]n2)c1)c1ccc2nc(-c3ccccc3)[nH]c2c1", "note": "[GDI-10928]", "values": [
      {"measurement": "ΔTm at 100 µM", "setting": "FtsZ", "value": 1.84, "unit": "°C"},
      {"measurement": "pIC50", "setting": "PheRS", "value": 3.92}
    ]}
  ]
}
